According to US20240279176A1, “SUBSTITUTED TRICYCLIC HETEROCYCLIC COMPOUNDS AS METALLO-BETA-LACTAMASE INHIBITORS” (priority 2021, published 2024):
Like-named read-outs stand apart in the source and are kept apart here.

How the values were obtained:
IMP-1 = IMP-1 (Serratia marcescens, UniProt P52699); assay: Enzyme activity: IC50 in fluorescence assay with cephalosporin substrate FC5; type: biochemical; settings: 100 pM IMP-1, 10 μM FC5, 10 min pre-incubation
Experimental: (§1) The Class B beta-lactamases activities were measured in the presence of the test inhibitors in a fluorescence assay against an in-house synthesized fluorescent cephalosporin substrate FC5 (Berkel, et. al. J. Med. Chem. 2013, 56(17), 6945). The enzymes (NDM-1, IMP-1) and the substrate were diluted in 20 mM HEPES, pH 7.4, supplemented with 300 mM NaCl and 10 μM ZnSO4. In the assay, the final concentration of enzyme was 50 pM, and 100 pM for NDM-1, and IMP-1 respectively, and the final concentration of FC5 was 1.5 μM for NDM-1 and 10 μM for IMP-1. The test inhibitors/compounds were dissolved in dimethylsulfoxide (DMSO) and diluted in the assay with assay buffer (20 mM HEPES, pH 7.4, supplemented with 5% DMSO, 300 mM NaCl and 10 μM ZnSO4), resulting in a final concentration range of 0.008 μM to 25 μM. The assays were performed in 96-well microplate (flat bottom, black). The test inhibitors were incubated with the MBL enzyme for 10 min at room temperature, followed by addition the substrate and the fluorescence was recorded immediately (λex 380 nm, λem 460 nm) on a microplate reader. Using the initial velocity data plotted against the inhibitor concentration, the half-maximal inhibitory concentrations were calculated by an IC50 curve-fitting model in GraphPad Prism 9 software.

NDM-1 = NDM-1 (Klebsiella pneumoniae, UniProt C7C422); assay: as above; type: biochemical; settings: 50 pM NDM-1, 1.5 μM FC5, 10 min pre-incubation
Sequence of NDM-1 (C7C422 29-270, looked up): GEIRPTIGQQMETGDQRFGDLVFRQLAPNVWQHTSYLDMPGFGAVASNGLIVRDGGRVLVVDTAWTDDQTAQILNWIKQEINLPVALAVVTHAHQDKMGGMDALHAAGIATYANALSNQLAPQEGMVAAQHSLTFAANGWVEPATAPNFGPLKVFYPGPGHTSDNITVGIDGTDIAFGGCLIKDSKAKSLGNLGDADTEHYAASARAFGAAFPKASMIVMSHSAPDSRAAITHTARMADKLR
Experimental: as §1

[1] = tested on: Klebsiella pneumoniae ATCC BAA-2146; assay: Minimum inhibitory concentration (MIC), broth-microdilution (CLSI); type: cell-based
Description: (§2) The strain included in the study was Klebsiella pneumoniae ATCC BAA-2146 (Himedia®, India) with presence of New Delhi metallo-β-lactamase (NDM-1) gene. The quality control reference strains Escherichia coli ATCC 25922 and Pseudomonas aeruginosa ATCC 27853 were procured from Himedia®, India.
MIC values were identified through broth-microdilution in sterilized 96-well polystyrene flat-bottom microtitre plates (Cole-Parmer®) according to the guideline of the Clinical and Laboratory Standards Institute (CLSI) (CLSI; Methods for dilution antimicrobial susceptibility tests for bacteria that grow aerobically; Clinical Laboratory Standards Institute, M07-A09, 2012). This method involves the use of BBL™ Cation-adjusted Mueller-Hinton II Broth (CA-MHB; BD) and the strain (Klebsiella pneumoniae ATCC BAA-2146) concentration was adjusted to 5×10^5 CFU/mL. After 16-18 h of incubation at various concentrations of Imipenem, Meropenem (Alfa Aesar), or test compounds at 37° C., MIC was defined as the lowest concentration of antibiotic or test compound with no visible growth.

[2] = tested on: Klebsiella pneumoniae ATCC BAA-2146; assay: Checkerboard synergy assay in combination with Meropenem; type: cell-based; settings: K. pneumoniae ATCC BAA-2146; for Fold reduction in meropenem MIC in the presence of compounds (μg/mL) 4: compound at 4 μg/mL; for Fold reduction in meropenem MIC in the presence of compounds (μg/mL) 8: compound at 8 μg/mL; for Fold reduction in meropenem MIC in the presence of compounds (μg/mL) 16: compound at 16 μg/mL; for Fold reduction in meropenem MIC in the presence of compounds (μg/mL) 32: compound at 32 μg/mL
Description: as §2
(§3) The fold modulation activity of test compounds, in combination with Imipenem or Meropenem, was checked against Klebsiella pneumoniae ATCC BAA-2146 strain by the broth-microdilution checkerboard synergy assay. The plates contained 5×10^5 CFU/mL bacterial inocula and 2-fold serial dilutions of the antibiotics (128-2 μg/mL) as well as test compounds (32-4 μg/mL) in a total volume of 200 μL of CA-MHB. Dimethyl sulfoxide (DMSO, ≤2.5%) was included as vehicle control. Following 16-18 h of incubation at 37° C., the MICs of antibiotics as well as drug combinations were visually inspected.

[3] = tested on: Klebsiella pneumoniae ATCC BAA-2146; assay: Checkerboard synergy assay in combination with Imipenem; type: cell-based; settings: K. pneumoniae ATCC BAA-2146; for Fold reduction in Imipenem MIC in the presence of compounds (μg/mL) 4: compound at 4 μg/mL; for Fold reduction in Imipenem MIC in the presence of compounds (μg/mL) 8: compound at 8 μg/mL; for Fold reduction in Imipenem MIC in the presence of compounds (μg/mL) 16: compound at 16 μg/mL; for Fold reduction in Imipenem MIC in the presence of compounds (μg/mL) 32: compound at 32 μg/mL
Description: as §2, §3

[4] = ATCCBAA2146, compound alone, Imipenem series, K. pneumoniae ATCC BAA-2146, read-out: Intrinsic MIC
[5] = ATCCBAA2146, compound alone, meropenem series, K. pneumoniae ATCC BAA-2146, read-out: Intrinsic MIC

Sequence of IMP-1 (P52699 19-246, looked up, species assumed): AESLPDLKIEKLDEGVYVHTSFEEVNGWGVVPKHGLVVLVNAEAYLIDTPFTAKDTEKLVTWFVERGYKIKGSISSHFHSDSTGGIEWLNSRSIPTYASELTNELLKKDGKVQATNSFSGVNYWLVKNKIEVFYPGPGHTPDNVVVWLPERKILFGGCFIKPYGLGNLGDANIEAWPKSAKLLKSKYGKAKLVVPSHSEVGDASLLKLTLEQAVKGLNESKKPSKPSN

| SMILES | IC50 (IMP-1) | IC50 (NDM-1) | MIC [1, 4] | MIC [1, 5] | Fold reduction in meropenem MIC in the presence of compounds (μg/mL) 4 [2] | Fold reduction in meropenem MIC in the presence of compounds (μg/mL) 8 [2] | Fold reduction in meropenem MIC in the presence of compounds (μg/mL) 16 [2] | Fold reduction in meropenem MIC in the presence of compounds (μg/mL) 32 [2] | Fold reduction in Imipenem MIC in the presence of compounds (μg/mL) 4 [3] | Fold reduction in Imipenem MIC in the presence of compounds (μg/mL) 8 [3] | Fold reduction in Imipenem MIC in the presence of compounds (μg/mL) 16 [3] | Fold reduction in Imipenem MIC in the presence of compounds (μg/mL) 32 [3] | MIC ([1]; ATCCBAA2146, antibiotic alone, read-out: MIC of meropenem against Klebsiella pneumoniae ATCC BAA-2146) |
| --- | --- | --- | --- | --- | --- | --- | --- | --- | --- | --- | --- | --- | --- |
| O=C(O)c1[nH]c2c(c1-c1cc(Cl)cc(Cl)c1)CCc1ccccc1-2 [Example 2, 3-(3,5-dichlorophenyl)-4,5-dihydro-1H-benzo[g]indole-2-carboxylic Acid] | 0.026 µM | 0.036 µM | > 64 µg/mL | > 128 µg/mL | 4 fold | 8 fold | 8 fold | 16 fold |  |  |  |  |  |
| O=C(O)c1[nH]c2c(c1-c1cccc(Cl)c1)CCc1ccccc1-2 [Example 45, 3-(3-chlorophenyl)-4,5-dihydro-1H-benzo[g]indole-2-carboxylic Acid] |  | 0.132 µM | > 128 µg/mL | > 128 µg/mL | 2 fold | 4 fold | 4 fold | 8 fold | 2 fold | 4 fold | 8 fold | 8 fold |  |
| Cc1ccc(-c2c(C(=O)O)[nH]c3c2CCc2ccccc2-3)c(F)c1 [Example 49, 3-(2-fluoro-4-methylphenyl)-4,5-dihydro-1H-benzo[g]indole-2-carboxylic Acid] | 2.05 µM | 0.319 µM | > 128 µg/mL | > 128 µg/mL | 2 fold | 2 fold | 4 fold | 4 fold |  |  |  |  |  |
| Cc1cc(Cl)cc(-c2c(C(=O)O)[nH]c3c2CCc2ccccc2-3)c1 [Example 57, 3-(3-chloro-5-methylphenyl)-4,5-dihydro-1H-benzo[g]indole-2-carboxylic Acid] |  | 1.6 µM | > 128 µg/mL | > 128 µg/mL | 4 fold | 4 fold | 8 fold | 8 fold | 4 fold | 8 fold | 8 fold | 16 fold |  |
| O=C(O)c1[nH]c2c(c1-c1cc(F)cc(Cl)c1)CCc1ccccc1-2 [Example 58, 3-(3-chloro-5-fluorophenyl)-4,5-dihydro-1H-benzo[g]indole-2-carboxylic Acid] | 0.869 µM | 0.009 µM | > 128 µg/mL | > 128 µg/mL |  |  |  |  | 4 fold | 8 fold | 8 fold | 16 fold |  |
| O=C(O)c1[nH]c2c(c1-c1cc(Cl)c(Cl)c(Cl)c1)CCc1ccccc1-2 [Example 60, 3-(3,4,5-trichlorophenyl)-4,5-dihydro-1H-benzo[g]indole-2-carboxylic Acid] | 1.56 µM |  | > 128 µg/mL | > 128 µg/mL | 4 fold | 8 fold | 8 fold | 8 fold | 4 fold | 8 fold | 8 fold | 16 fold |  |
| COc1cc(F)cc(-c2c(C(=O)O)[nH]c3c2CCc2ccccc2-3)c1 [Example 62, 3-(3-fluoro-5-methoxyphenyl)-4,5-dihydro-1H-benzo[g]indole-2-carboxylic Acid] | 3.45 µM | 0.196 µM | > 128 µg/mL | > 128 µg/mL |  |  |  |  | 4 fold | 4 fold | 8 fold | 8 fold |  |
| O=C(O)c1[nH]c2c(c1-c1ccccc1)CCc1ccccc1-2 [Example 63, 3-phenyl-4,5-dihydro-1H-benzo[g]indole-2-carboxylic Acid] | 4.05 µM | 2.36 µM | > 128 µg/mL | > 128 µg/mL |  |  |  |  | 4 fold | 4 fold | 8 fold | 8 fold |  |
| CC1Cc2c([nH]c(C(=O)O)c2-c2cc(F)cc(Cl)c2)-c2ccccc21 (stereo not shown) [Example 64, 3-(3-chloro-5-fluorophenyl)-5-methyl-4,5-dihydro-1H-benzo[g]indole-2-carboxylic Acid] | 0.821 µM | 1.42 µM | > 128 µg/mL | > 128 µg/mL |  |  |  |  | 4 fold | 4 fold | 8 fold | 8 fold |  |
| C[C@@H](O)[C@H]1C(=O)N2C(C(=O)O)=C(S[C@@H]3CN[C@H](C(=O)N(C)C)C3)[C@H](C)[C@H]12 [meropenem, reference compound] |  |  |  |  |  |  |  |  |  |  |  |  | 128 µg/mL |
